Data taken from ChEMBL document CHEMBL3611972, “Leishmanicidal, antiproteolytic, and mutagenic evaluation of alkyltriazoles and alkylphosphocholines” (Eur J Med Chem, 2015).

Tests used:
Leishmania amazonensis [1] = test: microbe, parasite or virus in culture; type: functional, organism-based; settings: MHOM/BR/71973/M2269, 72 h
Description: Leishmanicidal activity against Leishmania amazonensis MHOM/BR/71973/M2269 promastigotes assessed as reduction in surviving parasites incubated for 72 hrs by Neubauer's chamber based cell counting method

[2] = Inhibition of Leishmania mexicana cysteine protease r-CPB2.8 using Z-FR-AMC fluorogenic substrate by spectrofluorometry
Leishmania amazonensis [3] = test: Leishmanicidal activity against Leishmania amazonensis MHOM/BR/71973/M2269 amastigotes infected in mouse peritoneal macrophages assessed as reduction in surviving parasites incubated for 72 hrs by Giemsa staining based optical light microscopy; type: functional, organism-based; settings: MHOM/BR/71973/M2269, 72 h
[4] = Selectivity index, ratio of CC50 for mouse peritoneal macrophages to IC50 for Leishmania amazonensis MHOM/BR/71973/M2269 amastigotes infected in mouse peritoneal macrophages; type: functional
[5] = Cytotoxicity against mouse peritoneal macrophages assessed as reduction in cell viability incubated for 72 hrs by MTT assay; type: cell-based, Peritoneal macrophage cell
Salmonella typhimurium [6] = test: Mutagenicity in Salmonella typhimurium TA102 assessed as mutagenicity index at 5 ug/plate incubated for 90 mins at 37 degC in presence of liver S9 fractions by Ames test relative to untreated control; type: toxicity, organism-based; settings: salmonella enterica subsp. enterica serovar typhimurium, s9, 1.5 h
Salmonella typhimurium [7] = test: Mutagenicity in Salmonella typhimurium TA100 assessed as number of revertants at 5 ug/plate incubated for 90 mins at 37 degC in presence of liver S9 fractions by Ames test relative to untreated control; settings: salmonella enterica subsp. enterica serovar typhimurium, s9, 1.5 h
Salmonella typhimurium [8] = test: Mutagenicity in Salmonella typhimurium TA102 assessed as number of revertants at 5 ug/plate incubated for 90 mins at 37 degC in presence of liver S9 fractions by Ames test relative to control; settings: salmonella enterica subsp. enterica serovar typhimurium, s9, 1.5 h
Salmonella typhimurium [9] = test: Mutagenicity in Salmonella typhimurium TA98 assessed as mutagenicity index at 10 ug/plate incubated for 90 mins at 37 degC in absence of liver S9 fractions by Ames test relative to untreated control; type: toxicity, organism-based; settings: salmonella enterica subsp. enterica serovar typhimurium, 1.5 h
Salmonella typhimurium [10] = test: Mutagenicity in Salmonella typhimurium TA98 assessed as mutagenicity index at 10 ug/plate incubated for 90 mins at 37 degC in absence of liver S9 fractions by Ames test relative to control; type: toxicity, organism-based; settings: salmonella enterica subsp. enterica serovar typhimurium, 1.5 h

Row | SMILES | IC50 (Leishmania amazonensis [1]) [µM] | IC50 [2] [µM] | IC50 (Leishmania amazonensis [3]) [µM] | Ratio CC50/IC50 [4] | further results
1 | OCCCc1cn(CCCCCCCCCI)nn1 | 67.7 |  |  |  | 
2 | CCOC(=O)c1cn(CCCCCCCCCI)nn1 | 47.6 |  |  |  | 
3 | CCOC(=O)c1cn(CCCCCCCCCCCCI)nn1 | 27.9 | 6.08 | 17.7 | 5.28 | CC50 at 72 h [5]: 93.4 µM
4 | C[N+](C)(C)CCOP(=O)([O-])OCCCCCCCCCN=[N+]=[N-] | 136 |  |  |  | 
5 | OCCCc1cn(CCCCCCCCCCCCI)nn1 | 19.3 | 1.22 | 23.7 | 2.79 | CC50 at 72 h [5]: 66.2 µM
6 | CC(C)C[C@H](NC(=O)[C@H]1O[C@@H]1C(=O)O)C(=O)NCCCCN=C(N)N [E-64] |  | 0.125 |  |  | 
7 | C[C@@H]1[C@H](O)[C@@H](C)/C=C/C=C/C=C/C=C/C=C/C=C/C=C/[C@H](O[C@@H]2O[C@H](C)[C@@H](O)[C@H](N)[C@@H]2O)C[C@@H]2O[C@](O)(C[C@@H](O)C[C@@H](O)[C@H](O)CC[C@@H](O)C[C@@H](O)CC(=O)O[C@H]1C)C[C@H](O)[C@H]2C(=O)O [AMPHOTERICIN B] | 4.7 |  | 6.1 | 4.44 | 
8 | Nc1ccc2cc3ccccc3cc2c1 [2-AMINOANTHRACENE] |  |  |  |  | Revertants (Salmonella typhimurium [6]): 2510 revertants/plate; Revertants (Salmonella typhimurium [7]): 1020 revertants/plate; Revertants (Salmonella typhimurium [8]): 2510 revertants/plate
9 | Nc1ccc([N+](=O)[O-])cc1N |  |  |  |  | Activity_index (Salmonella typhimurium [9]): 1350; Activity_index (Salmonella typhimurium [10]): 1350
10 | CC(=O)OCCCc1cn(CCCCCCCCCCCCOS(C)(=O)=O)nn1 | 30.3 | 1.02 | 56.1 |  | CC50 at 72 h [5]: 26.6 µM
11 | CS(=O)(=O)OCCCCCCCCCCCCn1cc(CCC(=O)O)nn1 | 225 |  |  |  | 
12 | N=C(N)c1ccc(OCCCCCOc2ccc(C(=N)N)cc2)cc1 [PENTAMIDINE] |  |  | 6.62 | 1.69 | 
13 | CCOC(=O)c1cn(CCCCCCOS(C)(=O)=O)nn1 | 219 |  |  |  | 
14 | CCOC(=O)c1cn(CCCCCCCCCCCCOS(C)(=O)=O)nn1 | 75.9 |  |  |  | 
15 | OCCCc1cn(CCCCCCCCCCCCF)nn1 | 37.1 | 2.26 | 15.1 | 9.83 | CC50 at 72 h [5]: 163 µM
16 | CS(=O)(=O)OCCCCCCn1cc(CCCO)nn1 | 229 |  |  |  | 
17 | C[N+](C)(C)CCOP(=O)([O-])OCCCCCCCCCCCCN=[N+]=[N-] | 25.6 | 8.35 | 3.81 | 33.76 | CC50 at 72 h [5]: 129 µM
18 | CS(=O)(=O)OCCCCCCCCCn1cc(CCCO)nn1 | 82.2 |  |  |  | 
19 | CS(=O)(=O)OCCCCCCCCCCCCn1cc(CCCOS(C)(=O)=O)nn1 | 4.01 | 4.53 | 70.2 | 2.14 | CC50 at 72 h [5]: 156 µM
20 | OCCCc1cn(CCCCCCCCCF)nn1 | 81.7 |  |  |  | 
21 | CS(=O)(=O)OCCCCCCCCCCCCn1cc(CO)nn1 | 51.7 |  |  |  | 
